Patent US7649012B2, “Compounds, pharmaceutical compositions containing same, and methods of use for same” (FASgen, Inc., priority 2002, dated 2010)
Converted amounts (≈) assume the structure as drawn.

Columns and labels:
[1] = tested on: MCF-7 human breast cancer cells; assay: [14C]acetate incorporation into total lipids; format: cell-based; details: [14C]acetate incorporation into lipids
Procedure: This assay measures the incorporation of [^14C]acetate into total lipids and is a measure of fatty acid synthesis pathway activity in vitro. It is utilized to measure inhibition of fatty acid synthesis in vitro.
MCF-7 human breast cancer cells cultured as above, are plated at 5×10^4 cells per well in 24-well plates. […] DMSO is added to triplicate wells for a vehicle control. C75 is run at 5 and 10 μg/ml in triplicate as positive controls. After 4 hours of incubation, 0.25 μCi of [^14C]acetate (10 μl volume) is added to each well.
After 2 hours of additional incubation, medium is aspirated from the wells and 800 μl of chloroform:methanol (2:1) and 700 μl of 4 mM MgCl2 is added to each well. Contents of each well are transferred to 1.5 Eppendorf tubes, and spun at full-speed for 2 minutes in a high-speed Eppendorf Microcentrifuge 5415D. After removal of the aqueous (upper) layer, an additional 700 μl of chloroform:methanol (2:1) and 500 μl of 4 mM MgCl2 are added to each tube and then centrifuged for 1 minutes as above. The aqueous layer is removed with a Pasteur pipette and discarded. An additional 400 μl of chloroform:methanol (2:1) and 200 μl of 4 mM MgCl2 are added to each tube, then centrifuged and aqueous layer is discarded. The lower (organic) phase is transferred into a scintillation vial and dried at 40° C. under N2 gas. Once dried, 3 ml of scintillant (APB #NBC5104) is added and vials are counted for ^14C. The Beckman Scintillation counter calculates the average cpm values for triplicates.
The IC50 for the compounds is defined as the concentration of drug leading to a 50% reduction in [^14C]acetate incorporation into lipids compared to controls. […] The average cpm values are computed by the Beckman scintillation counter (Model LS6500) for each compound concentration. Computation of linear regression, best-fit line, r^2, and 95% confidence intervals are calculated using Prism Version 3.0 (Graph Pad Software).

[2] = tested on: MCF-7 human breast cancer cells; assay: Crystal violet cell growth assay; format: cell-based; details: MCF7, MCF-7, 72 hours, read-out: Cr. Violet(IC50)
Procedure: The crystal violet assay measure cell growth but not cytotoxicity. This assay employs crystal violet staining of fixed cells in 96-well plates with subsequent solubilization and measurement of OD490 on a spectrophotometer. The OD490 corresponds to cell growth per unit time measured. Cells are treated with the compounds of interest or vehicle controls and IC50 for each compound is computed.
To measure the cytotoxicity of specific compounds against cancer cells, 5×10^4 MCF-7 human breast cancer cells, obtained from the American Type Culture Collection are plated per well in 24 well plates in DMEM medium with 10% fetal bovine serum, penicillin, and streptomycin. Following overnight culture at 37° C. and 5% CO2, the compounds to be tested, dissolved in DMSO, are added to the wells in 1 μl volume at the following concentrations: 50, 40, 30, 20, and 10 μg/ml in triplicate. Additional concentrations are tested if required. 1 μl of DMSO is added to triplicate wells are the vehicle control. C75 is run at 10, and 5 μg/ml in triplicate as positive controls.
After 72 hours of incubation, cells are stained with 0.5 ml of Crystal Violet stain (0.5% in 25% methanol) in each well. After 10 minutes, wells are rinsed, air dried, and then solubilized with 0.5 ml 10% sodium dodecylsulfate with shaking for 2 hours.

[3] = tested on: Pseudomonas aeruginosa (ATCC # 27853); assay: Broth microdilution MIC; format: cell-based
Procedure: (§1) A broth microdilution assay is used to assess the antimicrobial activity of the compounds. […] Microorganisms tested include Staphylococcus aureus (ATCC # 29213), Enterococcus faecalis (ATCC # 29212), Pseudomonas aeruginosa (ATCC # 27853), and Escherichia coli (ATCC # 25922). The assay is performed in two growth media, Mueller Hinton Broth and Trypticase Soy Broth. […] Colonies are suspended in sterile broth so that the turbidity matches the turbidity of a 0.5 McFarland standard. The inoculum is diluted 1:10 in sterile broth (Mueller Hinton or Trypticase soy) and 195 ul is dispensed per well of a 96-well plate. The compounds to be tested, dissolved in DMSO, are added to the wells in 5 ul volume at the following concentrations: 25, 12.5, 6.25, 3.125, 1.56 and 0.78 ug/ml in duplicate. Additional concentrations are tested if required. 5 ul of DMSO added to duplicate wells are the vehicle control. Serial dilutions of positive control compounds, vancomycin (E. faecalis and S. aureus) and tobramycin (E. coli and P. aeruginosa), are included in each run. After 24 hours of incubation at 37° C., plates are read at OD600 on a Molecular Devices SpectraMax Plus Spectrophotometer. Average OD600 values are computed using SOFTmax Pro Software (Molecular Devices) and MIC values are determined by linear regression analysis using Prism version 3.02 (Graph Pad Software, San Diego).

[4] = tested on: Staphylococcus aureus (ATCC # 29213); assay: Broth microdilution MIC; format: cell-based; details: Staphylococcus aureus, ATCC29213; Trypticase Soy Broth; read-out: SA/Tsoy(MIC)
Procedure: as §1

[5] = target: rat liver acyl-CoA synthetase; details: read-out: 50% inhibition of rat liver acyl-CoA synthetase; cited from earlier work
[6] = tested on: Raji cells; details: cited from earlier work
[7] = target: viral HIV protease (Human immunodeficiency virus type 1 group M subtype B, UniProt P04585); details: cited from earlier work

## C=CCOC1=C(C)C(=O)S[C@]1(C)CCCCCCCC (racemic)
[1]
  14C(IC50): Neg
[2]
  IC50: 15.1 µg/mL (≈ 50.9 µM)

## CCCCCCCC[C@@]1(C)SC(=O)C(C(=O)OC)=C1O (racemic)
[3]; Mueller Hinton Broth
  PSAE/MH(MIC): Neg
[3]; Trypticase Soy Broth
  PSAE/Tsoy(MIC): Neg
[4]
  MIC: 23 µg/mL (≈ 76.6 µM)

## CCCC=CCC=CC=CC=NN=NO [Triacsin C, 1-hydroxy-3-(E, E, E-2′,4′,7′-undecatrienylidine) triazene]
[5]
  IC50: 8.7 µM
[6]
  concentration causing growth inhibition in Raji cells: 1.0 µM

## C/C=C/C/C=C/CCC(=O)[C@H]1O[C@H]1C(N)=O [cerulenin, (2S,3R)-2,3-epoxy-4-oxo-7,10 dodecadienoyl amide]
[7]
  concentration for inhibition of viral HIV protease: 5 mg/mL
